Experiment [1] relates to SA4247 Salmonella typhi cells expressing mutant Arabidopsis thaliana EPSPS. The experiment is described as follows: Glyphosate resistance assay (growth by optical density at 600 nm). The experiment is classed as cell-based. The following applies: 17 mM or 0 mM glyphosate, liquid M9 medium, OD 600 nm every hour for seven hours, compared to wild-type cells (FIG. 6).
Procedure: Electrocompetent cells of SA4247, a LacZ—Salmonella typhi strain, were prepared according to well known procedures (see Current Protocols in Molecular Biology, (Wiley and Sons, Inc.)). 30 μl of SA4247 competent cells were electroporated with 20 ng of each plasmid DNA encoding Arabidopsis wild-type and mutant EPSPS proteins, Bacillus wild-type EPSPS, along with a mock transfection as a control. The settings for electroporation were 25 μF, 2.5 KV and 200 ohms. After electroporation, the cells were transferred into 15 mls culture tube and supplemented with 970 μl of SOC medium. The cultures were incubated for 1½ hours at 37° C. at 225 rpm. 501 of each culture were plated onto LB plates containing 17 μg/ml chloramphenicol (in duplicates) and incubated overnight at 37° C. On the following day, 5 colonies of each plate were picked and transferred onto M9 plates and incubated overnight at 37° C.
Colonies from the overnight incubation on solid M9 were inoculated into 4 ml of liquid M9 medium and grown overnight at 37° C. On the following day, 25 ml of liquid M9 medium containing chloramphenicol, IPTG and 17 mM or 0 mM Glyphosate (Aldrich, 33775-7) were inoculated with 1-2 mls of each overnight culture (in duplicates), the starting OD (at 600 nm) was measured and all the cultures were normalized to start at the same OD. An OD measurement was taken every hour for seven hours. […]
In experiment [2] the target is wild-type EPSPS from E. coli (Escherichia coli, UniProt P0A6D3). To be noted: read-out: apparent Km for PEP; cited from earlier work.
Chain of wild-type EPSPS from E. coli (P0A6D3 whole entry): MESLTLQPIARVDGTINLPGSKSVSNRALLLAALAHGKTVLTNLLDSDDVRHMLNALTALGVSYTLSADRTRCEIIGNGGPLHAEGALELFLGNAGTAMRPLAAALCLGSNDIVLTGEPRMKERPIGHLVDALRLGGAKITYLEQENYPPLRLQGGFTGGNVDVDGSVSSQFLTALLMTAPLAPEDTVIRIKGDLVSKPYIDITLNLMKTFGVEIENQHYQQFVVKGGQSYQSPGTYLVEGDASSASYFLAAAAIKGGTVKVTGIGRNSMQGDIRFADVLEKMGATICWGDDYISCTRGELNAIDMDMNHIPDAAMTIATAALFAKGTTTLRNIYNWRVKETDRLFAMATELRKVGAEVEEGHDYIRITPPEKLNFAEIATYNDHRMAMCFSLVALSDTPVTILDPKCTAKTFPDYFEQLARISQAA

The Km is the concentration of substrate that gives half-maximal velocity.

With `O=C(O)CNCP(=O)(O)O` [glyphosate, N-phosphonomethylglycine], the “growth rate of cells containing a mutation in the EPSPS gene” value in experiment [1] is “substantially similar growth rate in the absence or presence of glyphosate”.
Regarding `C=C(OP(=O)(O)O)C(=O)O` [PEP, phosphoenolpyruvic acid], in experiment [2], the Km was 10 µM.

The values are drawn from patent US10035991B2, “Non-transgenic herbicide resistant plants” (priority 1999, dated 2018).
